Activity calls are given as the source filed them. No cut-off for these calls is given here.
What was measured:
HGC-27 [1] = assay: Induction of cell cycle arrest in human HGC-27 cells assessed as accumulation of cells at G0/G1 phase at 8 uM incubated for 24 hrs propidium iodide-A staining-based flow cytometric analysis (reference value: 45.21%); type: functional
AGS [2] = assay: Induction of cell cycle arrest in human AGS cells assessed as accumulation of cells at G0/G1 phase at 8 uM incubated for 24 hrs propidium iodide staining-based flow cytometric analysis (reference value: 46.51%); type: functional
HGC-27 [3] = assay: Induction of cell cycle arrest in human HGC-27 cells assessed as decrease in Cyclin D1 level at 0 to 10 uM by Western blot analysis; type: functional, cell-based; details: dose 0-10 µM
AGS [4] = assay: Induction of cell cycle arrest in human AGS cells assessed as decrease in CDK4 level at 0 to 10 uM by Western blot analysis; type: functional, cell-based; details: dose 0-10 µM
HGC-27 [5] = assay: Induction of apoptosis in human HGC-27 cells assessed as viable cells at 6 uM measured after 24 hrs by AnnexinV-FITC/PI staining based flowcytometry method (reference value: 91.1%); type: functional; details: read-out: Activity
HGC-27 [6] = assay: Induction of apoptosis in human HGC-27 cells assessed as necrotic cells at 10 uM measured after 24 hrs by AnnexinV-FITC/PI staining based flowcytometry method (reference value: 0.2%); type: functional
AGS [7] = assay: Induction of apoptosis in human AGS cells assessed as necrotic cells at 6 uM measured after 24 hrs by AnnexinV-FITC/PI staining based flowcytometry method (reference value: 0.2%); type: functional
AGS [8] = assay: Induction of apoptosis in human AGS cells assessed as increase in cleaved caspase-9 level at 0 to 10 uM by Western blot analysis; type: functional, cell-based; details: dose 0-10 µM
HGC-27 [9] = assay: Induction of apoptosis in human HGC-27 cells assessed as upregulation of Bax level at 0 to 10 uM by Western blot analysis; type: functional, cell-based; details: dose 0-10 µM
HGC-27 [10] = assay: Inhibition of mitochondrial fission in human HGC-27 cells assessed as downregulation of p-DRP1 at 0 to 10 uM measured after 24 hrs by Western blot analysis; type: functional, cell-based; details: dose 0-10 µM
HGC-27 [11] = assay: Induction of apoptosis in human HGC-27 cells assessed as early apoptotic cells measured after 24 hrs by AnnexinV-FITC/PI staining based flow cytometry method (reference value: 1.6%); type: functional
HGC-27 [12] = assay: Induction of apoptosis in human HGC-27 cells assessed as viable cells measured after 24 hrs by AnnexinV-FITC/PI staining based flow cytometry method (reference value: 96.6%); type: functional
AGS [13] = assay: Induction of apoptosis in human AGS cells transfected with pcDNA3.1-Drp1 plasmid to overexpress DRP1 assessed as necrotic cells and measured after 24 hrs by AnnexinV-FITC/PI staining based flow cytometry method (reference value: 0.2 %); type: functional
[14] = Toxicity in nude mouse xenografted with human AGS cells assessed as effect on body weight at 10 to 20 mg/kg, ip administered every other day and monitored every 3 days; type: organism-based; details: in vivo, 72 h, dose 10-20 mg/kg, time 3 day
[15] = Toxicity in nude mouse xenografted with human AGS cells assessed as effect on liver morphology at 10 to 20 mg/kg, ip administered every other day and monitored every 3 days by Hematoxyin-eosin staining based analysis; type: organism-based; details: in vivo, 72 h, dose 10-20 mg/kg, time 3 day

## CC(C)=CCC12Oc3cc(O)ccc3C1(O)Oc1cc(O)c([C@H]3C=C(C)C[C@H](c4ccc(O)cc4O)[C@H]3C(=O)c3ccc(O)cc3O)c(O)c1C2=O (stereo not given in full)
HGC-27 [1]
  Activity: 62.4%
AGS [2]
  Activity: 54.9%
HGC-27 [3]
  Activity: Active
AGS [4]
  Activity: Active
HGC-27 [5]
  viability at 6 µM: 84.2%
HGC-27 [6]
  Activity: 1.3%
AGS [7]
  Activity: 0.2%
AGS [8]
  Activity: Active
HGC-27 [9]
  Activity: Active
HGC-27 [10]
  inhibition: Active
HGC-27 [11]
  Activity: 4.3%
HGC-27 [12]
  Activity: 91.3%
AGS [13]
  Activity: 0.1%
[14]
  Activity: Non-Toxic
[15]
  Activity: Non-Toxic

Reference: ChEMBL document CHEMBL5126640, “Sanggenon C Suppresses Tumorigenesis of Gastric Cancer by Blocking ERK-Drp1-Mediated Mitochondrial Fission” (J Nat Prod, 2022)
